Laboratory results as given in ChEMBL document CHEMBL3046469, “Fungicidal Activities of 2-(Substituted Phenoxymethyl)phenyl-2-methoxyiminoacaetamide Derivatives” (1998).

Legend:
Format in all cases: functional
[1] = tested on: Podosphaera fuliginea; experiment: Fungicidal activity against Podosphaera fuliginea assessed as cucumber powdery mildew control at 2 ppm foliar application 24 hr before inoculation at 23 +/- 2 degC by preventive manner
[2] = tested on: Thanatephorus cucumeris; experiment: Fungicidal activity against Thanatephorus cucumeris assessed as rice sheath blight disease control at 31.3 ppm foliar application for 24 hr before inoculation at 26 +/- 2 degC measured after 5 days by preventive manner
[3] = tested on: Pyricularia oryzae; experiment: Fungicidal activity against Magnaporthe oryzae assessed as rice blast disease control at 31.3 ppm foliar application for 24 hr before inoculation at 27 +/- 2 degC measured after 5 days by preventive manner
[4] = tested on: Pseudoperonospora cubensis; experiment: Fungicidal activity against Pseudoperonospora cubensis assessed as cucumber downy mildew disease control at 2 ppm foliar application 24 hr before inoculation onto the adaxial(treated) surface of leaf by preventive manner
[5] = tested on: Blumeria graminis f. sp. tritici; experiment: Fungicidal activity against Blumeria graminis f. sp. tritici assessed as wheat powdery mildew disease control at 2 ppm foliar application for 48 hr before inoculation by preventive manner
[6] = tested on: Botrytis cinerea; experiment: Fungicidal activity against Botryotinia fuckeliana assessed as cucumber gray mold disease control at 7.8 ppm foliar application […] at 22 +/- 2 degC by preventive manner
[7] = tested on: Pseudoperonospora cubensis; experiment: Fungicidal activity against Pseudoperonospora cubensis assessed as cucumber downy mildew disease control at 2 ppm foliar application 24 hr before inoculation onto the abaxial(untreated) surface of leaf by preventive manner
[8] = tested on: Pyricularia oryzae; experiment: Fungicidal activity against Magnaporthe oryzae assessed as rice blast disease control at 2 ppm foliar application for 24 hr after inoculation at 27 +/- 2 degC measured after 5 days by curative manner
[9] = tested on: Thanatephorus cucumeris; experiment: Fungicidal activity against Thanatephorus cucumeris assessed as rice sheath blight disease control at 7.8 ppm foliar application for 24 hr before inoculation at 26 +/- 2 degC measured after 5 days by preventive manner
[10] = tested on: Blumeria graminis f. sp. tritici; experiment: Fungicidal activity against Blumeria graminis f. sp. tritici assessed as wheat powdery mildew disease control at 2 ppm foliar application for 48 hr after inoculation by curative manner
[11] = tested on: Pseudoperonospora cubensis; experiment: Fungicidal activity against Pseudoperonospora cubensis assessed as cucumber downy mildew disease control at 7.8 ppm foliar application 24 hr before inoculation onto the abaxial(untreated) surface of leaf by preventive manner
[12] = tested on: Pyricularia oryzae; experiment: Fungicidal activity against Magnaporthe oryzae assessed as rice blast disease control at 2 ppm foliar application for 24 hr before inoculation at 27 +/- 2 degC measured after 5 days by preventive manner
[13] = tested on: Botrytis cinerea; experiment: Fungicidal activity against Botryotinia fuckeliana assessed as cucumber gray mold disease control at 2 ppm foliar application […] at 22 +/- 2 degC by curative manner
[14] = tested on: Podosphaera fuliginea; experiment: Fungicidal activity against Podosphaera fuliginea assessed as cucumber powdery mildew control at 2 ppm foliar application 24 hr after inoculation at 23 +/- 2 degC by curative manner
[15] = tested on: Botrytis cinerea; experiment: Fungicidal activity against Botryotinia fuckeliana assessed as cucumber gray mold disease control at 7.8 ppm foliar application […] at 22 +/- 2 degC by curative manner
[16] = tested on: Pyricularia oryzae; experiment: Fungicidal activity against Magnaporthe oryzae assessed as rice blast disease control at 125 ppm foliar application for 24 hr after inoculation at 27 +/- 2 degC measured after 5 days by curative manner
[17] = tested on: Podosphaera fuliginea; experiment: Fungicidal activity against Podosphaera fuliginea assessed as cucumber powdery mildew control at 7.8 ppm foliar application 24 hr before inoculation at 23 +/- 2 degC by preventive manner
[18] = tested on: Blumeria graminis f. sp. tritici; experiment: Fungicidal activity against Blumeria graminis f. sp. tritici assessed as wheat powdery mildew disease control at 7.8 ppm foliar application 48 hr after inoculation by curative manner
[19] = tested on: Podosphaera fuliginea; experiment: Fungicidal activity against Podosphaera fuliginea assessed as cucumber powdery mildew control at 7.8 ppm foliar application 24 hr after inoculation at 23 +/- 2 degC by curative manner
[20] = tested on: Botrytis cinerea; experiment: Fungicidal activity against Botryotinia fuckeliana assessed as cucumber gray mold disease control at 31.3 ppm foliar application […] at 22 +/- 2 degC by preventive manner
[21] = tested on: Pyricularia oryzae; experiment: Fungicidal activity against Magnaporthe oryzae assessed as rice blast disease control at 7.8 ppm foliar application for 24 hr after inoculation at 27 +/- 2 degC measured after 5 days by curative manner
[22] = tested on: Thanatephorus cucumeris; experiment: Fungicidal activity against Thanatephorus cucumeris assessed as rice sheath blight disease control at 125 ppm foliar application for 24 hr before inoculation at 26 +/- 2 degC measured after 5 days by preventive manner
[23] = tested on: Podosphaera fuliginea; experiment: Fungicidal activity against Podosphaera fuliginea assessed as cucumber powdery mildew control at 31.3 ppm foliar application 24 hr after inoculation at 23 +/- 2 degC by curative manner
[24] = tested on: Pseudoperonospora cubensis; experiment: Fungicidal activity against Pseudoperonospora cubensis assessed as cucumber downy mildew disease control at 31.3 ppm foliar application 24 hr before inoculation onto the abaxial(untreated) surface of leaf by preventive manner
[25] = tested on: Pyricularia oryzae; experiment: Fungicidal activity against Magnaporthe oryzae assessed as rice blast disease control at 31.3 ppm foliar application for 24 hr after inoculation at 27 +/- 2 degC measured after 5 days by curative manner
[26] = tested on: Podosphaera fuliginea; experiment: Fungicidal activity against Podosphaera fuliginea assessed as cucumber powdery mildew control at 31.3 ppm foliar application 24 hr before inoculation at 23 +/- 2 degC by preventive manner
[27] = tested on: Blumeria graminis f. sp. tritici; experiment: Fungicidal activity against Blumeria graminis f. sp. tritici assessed as wheat powdery mildew disease control at 7.8 ppm foliar application 48 24 hr before inoculation by preventive manner
[28] = tested on: Pseudoperonospora cubensis; experiment: Fungicidal activity against Pseudoperonospora cubensis assessed as cucumber downy mildew disease control at 7.8 ppm foliar application 24 hr before inoculation onto the adaxial(treated) surface of leaf by preventive manner
[29] = tested on: Blumeria graminis f. sp. tritici; experiment: Fungicidal activity against Blumeria graminis f. sp. tritici assessed as wheat powdery mildew disease control at 31.3 ppm foliar application for 48 hr after inoculation by curative manner
[30] = tested on: Pyricularia oryzae; experiment: Fungicidal activity against Magnaporthe oryzae assessed as rice blast disease control at 7.8 ppm foliar application for 24 hr before inoculation at 27 +/- 2 degC measured after 5 days by preventive manner
[31] = tested on: Pseudoperonospora cubensis; experiment: Fungicidal activity against Pseudoperonospora cubensis assessed as cucumber downy mildew disease control at 125 ppm foliar application 24 hr before inoculation onto the abaxial(untreated) surface of leaf by preventive manner

SMILES | Activity [1] [%] | Activity [3] [%] | Activity [4] [%] | Activity [5] [%] | Activity [6] [%] | Activity [14] [%] | Activity [15] [%] | Activity [18] [%] | Activity [19] [%] | Activity [21] [%] | Activity [22] [%] | other results
CNC(=O)/C(=N/OC)c1ccccc1COc1cc(Cl)ccc1Cl | 90 | 90 | 90 | 90 | 90 |  |  |  |  |  |  | Activity [2]: 90%; Activity [7]: 90%
CNC(=O)/C(=N/OC)c1ccccc1COc1cc(C)ccc1C | 90 |  | 90 | 90 | 90 | 90 |  |  |  |  |  | Activity [8]: 90%; Activity [9]: 90%; Activity [10]: 90%; Activity [11]: 90%; Activity [12]: 90%; Activity [13]: 90%
CNC(=O)/C(=N\OC)c1ccccc1COc1cc(C)ccc1C |  | 90 |  | 90 | 90 |  | 90 | 90 | 90 |  |  | Activity [16]: 90%; Activity [17]: 90%
CO/N=C(/C(N)=O)c1ccccc1COc1cc(C)ccc1C | 90 | 90 |  |  |  |  | 90 |  | 90 | 90 |  | Activity [20]: 90%
CNC(=O)/C(=N/OC)c1ccccc1COc1ccc(Cl)cc1 | 90 | 90 | 90 | 90 | 90 | 90 |  |  |  | 90 | <90 | Activity [10]: 90%; Activity [11]: 90%; Activity [13]: 90%
CNC(=O)/C(=N/OC)c1ccccc1COc1ccccc1 |  | 90 |  |  |  |  | 90 |  |  |  | 90 | Activity [23]: 90%; Activity [24]: 90%; Activity [20]: 90%; Activity [25]: 90%; Activity [26]: 90%; Activity [27]: 90%; Activity [28]: 90%; Activity [29]: 90%
CNC(=O)/C(=N/OC)c1ccccc1COc1cccc(OC(C)C)c1 |  |  |  | 90 | 90 |  | 90 | 90 | 90 | 90 | 90 | Activity [17]: 90%; Activity [24]: 90%; Activity [30]: 90%; Activity [28]: 90%
CNC(=O)/C(=N/OC)c1ccccc1COc1ccc(-c2ccccc2)cc1 | 90 |  | 90 | 90 | 90 | 90 | 90 | 90 |  |  |  | Activity [2]: 90%; Activity [8]: 90%; Activity [31]: 90%; Activity [12]: 90%
